Experimental data as given in patent US20060094731A1, “New medicament” (priority 2003, published 2006).

How the values were obtained:
[1] = system: patients with diabetic nephropathy; test: Double-blind, randomised, placebo-controlled study of 24-hour proteinuria on top of high-dose ARB
Protocol: The study was double-blind, randomised, and placebo-controlled. […] Patients were included if at the end of the 4-week treatment period with high-dose ARBs, their 24-hour proteinuria was >300 mg/24 h. They were randomised into 3 groups: 20 mg of compound A, 50 mg of compound A, or placebo once daily, on top of the high dose ARB. Treatment duration was 4 weeks. The primary variable was 24-hour proteinuria.
Out of the 23 randomised patients, 7 received compound A 20 mg, 8 received compound A 50 mg and 8 received placebo. The mean age (±SD) was similar for all 3 groups. The HbA1c level at entry was also similar for all 3 groups.

[2] = system: patients with type 2 diabetes and nephropathy; conditions: literature studies (N Engl J Med 2001); correlating with reduction in onset of end-stage renal disease, no change in mortality rates; cited from earlier work

Compound	decrease in 24-hour proteinuria ([1]; compound A 50 mg once daily, 4 weeks, on top of high-dose ARB, mean ± SD, 8 patients) [g/24 h]	mean decrease in 24-hour proteinuria ([1]; the 2 groups treated with compound A (20 mg and 50 mg), summary statement, called clinically relevant)	effect on proteinuria [2]
COc1ccccc1Oc1c(NS(=O)(=O)c2ccc(C)cn2)nc(-c2ccncc2)nc1OC [compound A]	−1.3±1.3	around 1 g/24 h	
CCCCC1=NC2(CCCC2)C(=O)N1Cc1ccc(-c2ccccc2-c2nnn[nH]2)cc1 [irbesartan]			decrease in proteinuria
CCCCc1nc(Cl)c(CO)n1Cc1ccc(-c2ccccc2-c2nn[nH]n2)cc1 [losartan]			decrease in proteinuria
